# According to publication PMC12246642 (iScience, 2025):
# Where a SMILES comes first, the peptide text is derived from it. [ ]: non-standard residue; d: D form. The star is where a group is joined. Met(O2) = CS(=O)(=O)CC[C@H](N)C(=O)O; Ala(cPr) = N[C@@H](CC1CC1)C(=O)O; Cbz = O=C(OCc1ccccc1)*
# Columns and labels:
# [1] = biological target: T1, SARS-CoV-2 Mpro (Severe acute respiratory syndrome coronavirus 2, UniProt P0DTD1); experiment: biochemical; format: biochemical; conditions: for IC50 / Ki: Kinetics N = 2 (95% CI); for IC50: 4-parameter fit of the same data; for Ki: Morrison fit, 1 nM Mpro, 800 mM citrate buffer, 15 min preincubation
# [2] = system: SARS-CoV-2; experiment: Anti-viral potency: inhibition of in vitro replication of SARS-CoV-2 in A549 cells; format: cell-based; conditions: for EC50: Severe acute respiratory syndrome coronavirus 2, A549 cells, 10-point titration from 50 μM, triplicate
# [3] = biological target: T1, SARS-CoV-2 Mpro; experiment: Covalent bond (adduct) formation kinetics by IR-MALDESI intact protein MS; format: binding; conditions: for kobs (95 % CI) for adduct formation / kobs (95 % CI) Quenched, SPR: SPR buffer; for kobs (95 % CI) for adduct formation: Figure 2; for kobs (95 % CI) Quenched, SPR / kobs (95 % CI) Quenched, Citrate: quenched with 200 μM compound 9, 10 μM compound and Mpro, Figure S5; for kobs (95 % CI) Quenched, Citrate: citrate buffer, only estimated for lack of early timepoints
# [4] = biological target: T1, SARS-CoV-2 Mpro; format: binding; conditions: 40 μM 15N-labeled deuterated Mpro, 20 or 40 μM compound, SPR buffer
# [5] = biological target: T1, SARS-CoV-2 Mpro; format: binding; conditions: 300 μM 13C-labeled compound, 100 μM Mpro, SPR buffer; for covalent adduct formation with Cys145 seen by 13C NMR: up to 3 h (compound 1) or 6 h (compound 5)
# [6] = format: physicochemical; conditions: 500 μM, monitored for 10 h at 16-min intervals
# [7] = first determination, 4-parameter IC50 fit
# [8] = second determination, 4-parameter IC50 fit
structure (smiles),measurement,setting,value
"COc1cccc2[nH]c(C(=O)N[C@@H](CC3CC3)C(=O)N[C@H](C=O)C[C@@H]3CCNC3=O)cc12 [Compound 1, N-((S)-3-cyclopropyl-1-oxo-1-(((S)-1-oxo-3-((S)-2-oxopyrrolidin-3-yl)propan-2-yl)amino)propan-2-yl)-4-methoxy-1H-indole-2-carboxamide]",Hill slope,[1]; 4-parameter IC50 refit,greater than 1
same,Hill slope,[1]; [7],3.1
same,Hill slope,[1]; [8],2.0
same,EC50,[2],6.2 µM
same,kobs (95 % CI) for adduct formation,[3]; Ratio Cmpd:Mpro 1:1,0.11 (0.04919 to 0.2232)
same,kobs (95 % CI) for adduct formation,[3]; Ratio Cmpd:Mpro 2:1,0.34 (0.1598 to 0.8874)
same,kobs (95 % CI) for adduct formation,[3]; Ratio Cmpd:Mpro 5:1,2.0 (1.597 to 2.492)
same,"kobs (95 % CI) Quenched, SPR",[3],0.13 Min -1
same,"kobs (95 % CI) Quenched, Citrate",[3],0.31 Min -1
same,exchange regime of binding on the NMR timescale,[4],slow exchange regime
same,non-covalently bound form seen by 13C NMR,[5]; extended incubation,stably bound to Mpro non-covalently
same,covalent adduct formation with Cys145 seen by 13C NMR,[5],thiohemiacetal formation
same,epimerization at P1: αH resonance in D2O SPR buffer,[6],no change in intensity
"O=C[C@H](C[C@@H]1CCNC1=O)NC(=O)[C@H](CC1CC1)NC(=O)OCc1ccccc1 [Compound 2, benzyl ((S)-3-cyclopropyl-1-oxo-1-(((S)-1-oxo-3-((S)-2-oxopyrrolidin-3-yl)propan-2-yl)amino)propan-2-yl)carbamate]",Hill slope,[1]; 4-parameter IC50 refit,greater than 1
same,Hill slope,[1]; [7],2.7
same,Hill slope,[1]; [8],2.5
same,EC50,[2],3.3 µM
same,"kobs (95 % CI) Quenched, SPR",[3],0.49 Min -1
same,"kobs (95 % CI) Quenched, Citrate",[3],0.85 Min -1
"COc1cccc2[nH]c(C(=O)N[C@@H](CC3CC3)C(=O)N[C@H](C=O)CCS(C)(=O)=O)cc12 [Compound 3, N-((S)-3-cyclopropyl-1-(((S)-4-(methylsulfonyl)-1-oxobutan-2-yl)amino)-1-oxopropan-2-yl)-4-methoxy-1H-indole-2-carboxamide]",Hill slope,[1]; 4-parameter IC50 refit,1.5
same,Hill slope,[1]; [7],1.5
same,Hill slope,[1]; [8],1.5
same,"kobs (95 % CI) Quenched, SPR",[3],0.18 Min -1
same,"kobs (95 % CI) Quenched, Citrate",[3],0.30 Min -1
"CS(=O)(=O)CC[C@@H](C=O)NC(=O)[C@H](CC1CC1)NC(=O)OCc1ccccc1 [Compound 4, benzyl ((S)-3-cyclopropyl-1-(((S)-4-(methylsulfonyl)-1-oxobutan-2-yl)amino)-1-oxopropan-2-yl)carbamate] (Cbz-[Ala(cPr)]-[Met(O2)]-aldehyde)",Hill slope,[1]; [7],1.0
same,Hill slope,[1]; [8],1.0
same,EC50,[2],22 µM
same,"kobs (95 % CI) Quenched, SPR",[3],0.29 Min -1
same,"kobs (95 % CI) Quenched, Citrate",[3],0.35 Min -1
"COc1cccc2[nH]c(C(=O)N[C@@H](CC3CC3)C(=O)N[C@H](C#N)C[C@@H]3CCNC3=O)cc12 [Compound 5, N-((S)-1-(((S)-1-cyano-2-((S)-2-oxopyrrolidin-3-yl)ethyl)amino)-3-cyclopropyl-1-oxopropan-2-yl)-4-methoxy-1H-indole-2-carboxamide]",Hill slope,[1]; [7],1.0
same,Hill slope,[1]; [8],1
same,decrease of cellular EC50 versus the Ki determined in citrate buffer,[2]; EC50 in A549 cells versus Ki,760 fold
same,EC50,[2],3.2 µM
same,kobs (95 % CI) for adduct formation,[3]; Ratio Cmpd:Mpro 1:1,0.33 (0.2393 to 0.4596)
same,kobs (95 % CI) for adduct formation,[3]; Ratio Cmpd:Mpro 2:1,0.40 (0.2513 to 0.6949)
same,kobs (95 % CI) for adduct formation,[3]; Ratio Cmpd:Mpro 5:1,1.6 (0.7658 to 3.045)
same,"kobs (95 % CI) Quenched, SPR",[3],1.2 Min -1
same,"kobs (95 % CI) Quenched, Citrate",[3],0.47 Min -1
same,exchange regime of binding on the NMR timescale,[4],fast exchange regime
same,covalent adduct formation with Cys145 seen by 13C NMR,[5],no new peaks emerged to suggest thioimidate formation
"N#C[C@H](C[C@@H]1CCNC1=O)NC(=O)[C@H](CC1CC1)NC(=O)OCc1ccccc1 [Compound 6, benzyl ((S)-1-(((S)-1-cyano-2-((S)-2-oxopyrrolidin-3-yl)ethyl)amino)-3-cyclopropyl-1-oxopropan-2-yl)carbamate]",Hill slope,[1]; [7],1.1
same,Hill slope,[1]; [8],1.0
same,EC50,[2],13 µM
same,"kobs (95 % CI) Quenched, SPR",[3],0.08 Min -1
same,"kobs (95 % CI) Quenched, Citrate",[3],0.34 Min -1
"COc1cccc2[nH]c(C(=O)N[C@@H](CC3CC3)C(=O)N[C@H](C#N)CCS(C)(=O)=O)cc12 [Compound 7, N-((S)-1-(((S)-1-cyano-3-(methylsulfonyl)propyl)amino)-3-cyclopropyl-1-oxopropan-2-yl)-4-methoxy-1H-indole-2-carboxamide]",Hill slope,[1]; [7],0.6
same,EC50,[2],> 50 µM
"CS(=O)(=O)CC[C@@H](C#N)NC(=O)[C@H](CC1CC1)NC(=O)OCc1ccccc1 [Compound 8, benzyl ((S)-1-(((S)-1-cyano-3-(methylsulfonyl)propyl)amino)-3-cyclopropyl-1-oxopropan-2-yl)carbamate]",IC50,[1]; first determination,> 12.5 µM
same,Ki,[1]; first determination,> 12.5 µM
same,IC50,[1]; second determination,> 12.5 µM
same,Ki,[1]; second determination,> 12.5 µM
